{"source": "patent US20040043403A1", "about": "“Process for determining the biological activity of epidermal growth factor receptor tyrosine kinase inhibitors” (priority 2000, published 2004)", "format_in_all_cases": "cell-based, human", "key": {"MDA-MB468": {"test_system": "MDA-MB468", "test": "Real time RT-PCR gene expression in MDA-MB468 cells", "settings": "MDA-MB468, 3 μM, 24 h; relative to DMSO-treated NCI-H520 calibrator", "procedure": "(§1) 20 million tissue culture cells (about 80% confluent) or 200 million WBCs are incubated for 2 or 24 h in culture medium containing 3 μM of an EGFR tyrosine kinase inhibitor or 0.03% DMSO. Total RNA from cell pellet is isolated using the RNeasy kit (Qiagen). mRNA is isolated using the oligotex mRNA purification kit (Qiagen). The quality of the obtained mRNA is tested by real time RT-PCR using beta-Actin primers (PE Applied Biosystems) with an amplicon size of 300 base pairs (bp). The total RNA is used as a reference to calculate the amount of mRNA-enrichment in the oligotex purified samples. The primers and probes are designed from mRNA sequences within the coding region or in the 3′ untranslated region (Table 2). For real time RT-PCR, RNA concentrations between 1 and 50 ng/reaction are used to obtain signals between 15-35 cycles. For each RNA preparation RT-PCR reactions are performed with and without reverse transcriptase to check for genomic DNA contamination. In all RNA samples tested, genomic DNA contamination is less than 1%. To normalize for variability in the initial concentration and quality of the total RNA, Glyceraldehyde-3-phosphate dehydrogenase (GAPDH) is used as an endogenous reference in all quantification experiments. For RT-PCR a one step, two-enzyme system is chosen. The TaqMan PCR Core Reagent Kit (PE #N808-0228) plus the reverse transcriptase MuLV (PE Biosystems # N808-0018) and RNase inhibitor (Roche Diagnostics # 799 025) are mixed as described in the manufacturers protocol. Triplicate measurements are done for target and for reference reactions. […] RT-PCR reactions are done with RNA concentrations of 2.5, 5, 10, 20, 40 and 80 ng per reaction. […] The ΔCT value is determined by subtracting the average reference CT values from the average target CT values of the three measurements. Relative quantification is performed in triplicates, reference and target, using the RT-PCR protocol described above. […] Expression levels for the three genes, calculated relative to NCI-H520, show big differences between the various cell types (Table 5). […]"}, "NCI-H596": {"test_system": "NCI-H596", "test": "Real time RT-PCR gene expression in NCI-H596 cells", "settings": "NCI-H596, 3 μM, 24 h; relative to DMSO-treated NCI-H520 calibrator", "procedure": "as §1"}, "NCI-H520": {"test_system": "NCI-H520", "test": "Real time RT-PCR gene expression in NCI-H520 cells", "settings": "NCI-H520, 3 μM, 24 h; relative to DMSO-treated NCI-H520 calibrator", "procedure": "as §1"}, "A431 cells": {"test_system": "A431 cells", "test": "Western blot of clusterin induction in A431 cells", "procedure": "An EGFR tyrosine kinase inhibitor is dissolved in DMSO to obtain a 10 mM stock solution. The stock solution is further diluted in culture medium to final concentrations of 10 nM to 3 μM. 3.5 million cells/100 mm dish/12 ml culture medium are incubated for 24 h in 5% CO2 at 37° C. The medium is replaced with medium containing the EGFR tyrosine kinase inhibitor or DMSO. Cells are incubated for 4 to 32 h. The frozen pellets are lysed in 500 μl of lysis buffer (50 mM Tris-HCl pH 7.5, 1% Sodium Dodecyl Sulfate (SDS)). To shear genomic DNA, the cell lysates are processed in a FastPrep instrument for 20 sec at a speed rating of 4, using the green […] tubes (Bio101#6040-6010). Protein concentrations are determined according to the PIERCE-method (BCA Protein Assay, Reagent A and B). Protein concentration of lysates is adjusted to 1 μg/μl with lysis buffer. 4 parts of cell lysates are mixed with 1 part of 5 fold concentrated Laemmli buffer, the lysates are stored at -20° C. 40 μl of cell lysate is heated for 3 min to 95° C. and directly loaded on to 10% or 15% SDS-PAGE gels. The gels are run at 130 V for 90 min under standard conditions. The separated proteins are semi-dry blotted on to a PVDF membrane (Immobilon-P, Millipore #IPVH 202 00) for 70 min with 45 mA per blot. Immediately after the transfer the blots are incubated in Blotto A (5% skim milk powder in Tris Buffered Saline (TBS)/0.05% Tween-20) for 1 h at room temperature on a rotating platform. The blots are then washed three times in TBS/0.05% Tween-20. The blots are incubated […] with 0.2 μg/ml of e.g. goat anti-human clusterin (C-18) antibody (Santa Cruz, sc-6419) in Blotto A for 1.5 h at room temperature on a rotating platform. The control blots are incubated with 0.2 μg/ml of mouse anti-human-actin (C-2) antibody (Santa Cruz, sc-8432). The blots are washed three times with TBS/0.05% Tween-20. […]"}}}
{"smiles": "C[C@@H](Nc1ncnc2[nH]c(-c3ccc(O)cc3)cc12)c1ccccc1", "note": "[COMPOUND A, (R)-6-(4-hydroxy-phenyl)-4-[(1-phenyl-ethyl)-amino]-7H-pyrrolo[2,3-d]pyrimidine]", "values": [{"measurement": "Relative Clusterin expression", "setting": "MDA-MB468", "value": 32.60, "unit": "n-fold"}, {"measurement": "Relative TRAIL expression", "setting": "MDA-MB468", "value": 2.89, "unit": "n-fold"}, {"measurement": "Relative VAC-beta expression", "setting": "MDA-MB468", "value": 26.60, "unit": "n-fold"}, {"measurement": "Relative Clusterin expression", "setting": "NCI-H596", "value": 44.12, "unit": "n-fold"}, {"measurement": "Relative TRAIL expression", "setting": "NCI-H596", "value": 81.76, "unit": "n-fold"}, {"measurement": "Relative VAC-beta expression", "setting": "NCI-H596", "value": 102.30, "unit": "n-fold"}, {"measurement": "Relative Clusterin expression", "setting": "NCI-H520", "value": 0.61, "unit": "n-fold"}, {"measurement": "Relative TRAIL expression", "setting": "NCI-H520", "value": 0.39, "unit": "n-fold"}, {"measurement": "Relative VAC-beta expression", "setting": "NCI-H520", "value": 0.75, "unit": "n-fold"}, {"measurement": "Clusterin induction, Western blot (FIG. 4)", "setting": "A431 cells; A431 cells (high levels of EGFR), 300 nM, 24 h, vs 0.03% DMSO", "value": "strong clusterin expression signals"}, {"measurement": "Concentration at which the 43 kDa clusterin signals reach a maximum (FIG. 2)", "setting": "A431 cells; A431 cells, 10 nM to 1 μM, 24 h, signals increase with concentration", "value": 300, "unit": "nM"}, {"measurement": "Time course of clusterin protein induction (FIG. 3)", "setting": "A431 cells; A431 cells, 300 nM, 4, 8, 16, 24 and 32 h", "value": "continuous increase of clusterin signal from 16 h to 32 h"}]}
